According to patent publication US20030008903A1, “R-lansoprazole compositions and methods” (Sepracor Inc., priority 1998, published 2003):

Experiments:
[1] = tested on: hepatic drug metabolizing enzyme systems; settings: compared with omeprazole; cited from earlier work
gastric acid secretion = settings: humans; cited from earlier work
serum gastrin = settings: humans, on administration of racemic lansoprazole; cited from earlier work
[2] = humans; cited from earlier work
canine parietal cells = settings: isolated canine parietal cells; (+) versus (−) enantiomer; Nagaya et al.; cited from earlier work
[3] = human, in vivo
Text: Utilizing the optically pure or substantially optically pure isomer of (+) lansoprazole results in enhanced efficacy, diminished adverse effects, and accordingly, an improved therapeutic index. […] It is therefore, more desirable to use the (+) isomer of lansoprazole than to administer the racemic mixture because predictability of an effective and safe dose for an individual patient is greater.

| SMILES | effects on hepatic drug metabolizing enzyme systems [1] | duration of the acid inhibitory effect (gastric acid secretion) | fasting serum gastrin levels (serum gastrin) | serum half-life [2] | effects on acid formation stimulated by db-cAMP (canine parietal cells) | half-life [3] | variation in the patient population between good metabolizers and poor metabolizers [3] |
| --- | --- | --- | --- | --- | --- | --- | --- |
| Cc1c(OCC(F)(F)F)ccnc1C[S+]([O-])c1nc2ccccc2[nH]1 (racemic) [racemic lansoprazole, 2-[3-methyl-4-(2,2,2-trifluoroethoxy)pyrid-2-yl]methylsulfinyl-benzimidazole] | comparable to omeprazole | about 24 hours | significantly elevated | about 1.5 hours | – | – | – |
| Cc1c(OCC(F)(F)F)ccnc1C[S+]([O-])c1nc2ccccc2[nH]1 (stereo not drawn) [S(−) lansoprazole] | – | – | – | – | almost identical | – | – |
| Cc1c(OCC(F)(F)F)ccnc1C[S@@+]([O-])c1nc2ccccc2[nH]1 (single isomer, unassigned) [R(+) lansoprazole, (+) isomer of 2-[3-methyl-4-(2,2,2-trifluoroethoxy)pyrid-2-yl]methylsulfinyl-benzimidazole] | – | – | – | – | almost identical | longer half-life | less variation |
